Assay results from patent US12516070B2, “Fused ring derivatives and use thereof in pharmacy” (priority 2020, dated 2026).

Tests used:
[1] = tested on: A/WSN/33 I38T Mutation (H1N1); type: cell-based, influenza virus
[2] = tested on: A/PR/8/34 I38T Mutation (H1N1); type: cell-based, influenza virus

SMILES: CN1C(=O)c2c(O)c(=O)ccn2N2[C@H](c3ccccc3Br)c3cc(F)c(F)cc3OCC[C@@H]12 [Compound 18A]
- EC50 [1]: 214 nM
- EC50 [2]: 117 nM
